The assay relates to L1210 leukemia ip in BDF1 mice, survival T/C. Nature of the assay: NCI In Vivo Anticancer Drug Screen. Data for tumor model L1210 Leukemia (intraperitoneal) in B6D2F1 (BDF1) mice. The conditions noted are these: higher = longer survival. In a few lines:
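Transplanted-tumor mice were given test agent; controls received vehicle only. Survival readings from the two groups were divided (treated over control).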

Setting [1] is: endpoint: mean survival time, dose: 222.0 mg/kg/injection, schedule: Q01DX Z (ip), vehicle: methylcellulose (MC).
[2] abbreviates: endpoint: mean survival time, dose: 333.0 mg/kg/injection, schedule: Q01DX Z (ip), vehicle: methylcellulose (MC).
[3] abbreviates: endpoint: mean survival time, dose: 500.0 mg/kg/injection, schedule: Q01DX Z (ip), vehicle: methylcellulose (MC).
Where [4] appears, read: endpoint: mean survival time, dose: 100.0 mg/kg/injection, schedule: Q04DX003 (ip), vehicle: Klucel (hydroxypropylcellulose) (HPC).
Where [5] appears, read: endpoint: mean survival time, dose: 200.0 mg/kg/injection, schedule: Q04DX003 (ip), vehicle: Klucel (hydroxypropylcellulose) (HPC).
[6] abbreviates: endpoint: mean survival time, dose: 400.0 mg/kg/injection, schedule: Q04DX003 (ip), vehicle: Klucel (hydroxypropylcellulose) (HPC).
[7] abbreviates: endpoint: mean survival time, dose: 100.0 mg/kg/injection, schedule: Q04DX003 (ip), vehicle: saline.
Setting [8] is: endpoint: mean survival time, dose: 200.0 mg/kg/injection, schedule: Q04DX003 (ip), vehicle: saline.
The mark [9] stands for this setting: endpoint: mean survival time, dose: 100.0 mg/kg/injection, schedule: Q04DX002 (ip), vehicle: Klucel (hydroxypropylcellulose) (HPC).
Where [10] appears, read: endpoint: mean survival time, dose: 200.0 mg/kg/injection, schedule: Q04DX002 (ip), vehicle: Klucel (hydroxypropylcellulose) (HPC).
The mark [11] stands for this setting: endpoint: mean survival time, dose: 100.0 mg/kg/injection, schedule: Q01DX009 (ip), vehicle: Klucel (hydroxypropylcellulose) (HPC).
Setting [12] is: endpoint: mean survival time, dose: 200.0 mg/kg/injection, schedule: Q01DX009 (ip), vehicle: Klucel (hydroxypropylcellulose) (HPC).
Setting [13] is: endpoint: mean survival time, dose: 400.0 mg/kg/injection, schedule: Q01DX009 (ip), vehicle: Klucel (hydroxypropylcellulose) (HPC).
Where [14] appears, read: endpoint: mean survival time, dose: 100.0 mg/kg/injection, schedule: Q01DX001 (ip), vehicle: saline.
Setting [15] is: endpoint: mean survival time, dose: 200.0 mg/kg/injection, schedule: Q01DX001 (ip), vehicle: saline.
[16] abbreviates: endpoint: mean survival time, dose: 400.0 mg/kg/injection, schedule: Q01DX001 (ip), vehicle: saline.

The structures appear in SMILES notation. Values joined by “and” are separate entries in the source; they are usually repeats but may differ in a detail not shown here. Equal values may be shown once. Inconclusive results and toxic doses are left out.

The source of these data is PubChem BioAssay AID248 (DTP/NCI, 2004).

For `c1ccc2nc(N3CCCCC3)c(N3CCCCC3)nc2c1`, the T/C is, setting by setting: under setting [1], 108 % of control; under setting [2], 96 % of control; under setting [3], 92 % of control.

As to `Ic1ccc(Oc2ccc(I)cc2)cc1`, the T/C was 113 % of control under setting [4]; 90 % of control under setting [5]; 92 % of control under setting [1]; 92 % of control under setting [2]; 98 % of control under setting [6]; 100 % of control under setting [3].

For the molecule `NC(=O)c1cn[nH]c1N1CC[N+](CCCl)=N1`, the T/C (endpoint: mean survival time, dose: 50.0 mg/kg/injection, schedule: Q01DX009 (ip), vehicle: saline) is 93 % of control; the T/C (endpoint: mean survival time, dose: 100.0 mg/kg/injection, schedule: Q01DX009 (ip), vehicle: saline) is 103 % of control; the T/C under setting [7] was 103 % of control; the T/C (endpoint: mean survival time, dose: 200.0 mg/kg/injection, schedule: Q01DX009 (ip), vehicle: saline) is 108 % of control; the T/C under setting [8] was 97 % of control.

For the molecule `C=C1CC(c2ccc(S(=O)(=O)N3CCCC3)cc2)OC1=O` (stereo unspecified), the T/C under setting [9] is 95 % of control and the T/C under setting [10] was 98 % of control.

Consider `CCS(=O)(=O)C(Br)CBr` (stereo unspecified), for which the T/C is 100 % of control (endpoint: mean survival time, dose: 25.0 mg/kg/injection, schedule: Q01DX009 (ip), vehicle: Klucel (hydroxypropylcellulose) (HPC)); 114 % of control (endpoint: mean survival time, dose: 50.0 mg/kg/injection, schedule: Q01DX009 (ip), vehicle: Klucel (hydroxypropylcellulose) (HPC)); 105 % of control under setting [11]; 103 % of control under setting [9]; 95 % of control under setting [10].

On to `CCN(CC)CCO[C@H]1CC[C@@]2(C)C(=CC[C@@H]3[C@@H]2CC[C@]2(C)C(=O)CC[C@@H]32)C1`, for which the T/C was 101 % of control (endpoint: mean survival time, dose: 50.0 mg/kg/injection, schedule: Q01DX001 (sc), vehicle: steriod suspending solution) and 90 % of control (endpoint: mean survival time, dose: 100.0 mg/kg/injection, schedule: Q01DX001 (sc), vehicle: steriod suspending solution).

Consider `CCOC(=O)c1ccc(NC(=O)OC2CCCC2)cc1`, for which the T/C under setting [11] was 100 % of control, the T/C under setting [12] was 101 % of control and the T/C under setting [13] was 92 % of control.

On to `O=C(CCCCCCCCC(=O)NCCBr)NCCBr`, for which the T/C (endpoint: mean survival time, dose: 100.0 mg/kg/injection, schedule: Q01DX005 (ip), vehicle: Klucel (hydroxypropylcellulose) (HPC)) was 98 % of control; the T/C under setting [9] is 104 % of control; the T/C (endpoint: mean survival time, dose: 200.0 mg/kg/injection, schedule: Q01DX005 (ip), vehicle: Klucel (hydroxypropylcellulose) (HPC)) is 94 % of control; the T/C under setting [10] is 101 % of control; the T/C (endpoint: mean survival time, dose: 400.0 mg/kg/injection, schedule: Q01DX005 (ip), vehicle: Klucel (hydroxypropylcellulose) (HPC)) is 102 % of control; the T/C (endpoint: mean survival time, dose: 400.0 mg/kg/injection, schedule: Q04DX002 (ip), vehicle: Klucel (hydroxypropylcellulose) (HPC)) is 101 % of control.

Take `CCCCS(=O)(=O)CS(=O)(=O)CC`: the T/C reads like this: (endpoint: mean survival time, dose: 100.0 mg/kg/injection, schedule: Q01DX001 (ip), vehicle: saline with Tween-80) 98 % of control; (endpoint: mean survival time, dose: 200.0 mg/kg/injection, schedule: Q01DX001 (ip), vehicle: saline with Tween-80) 91 % of control; (endpoint: mean survival time, dose: 400.0 mg/kg/injection, schedule: Q01DX001 (ip), vehicle: saline with Tween-80) 105 % of control.

For `NC(CCSC(c1ccccc1)c1ccccc1)C(=O)O` (stereo unspecified), the T/C runs as follows: under setting [14], 101 % of control; under setting [15], 97 % of control; under setting [16], 97 % of control.

As to `Cc1cc(OC(=O)Nc2cc(C(F)(F)F)ccc2Cl)ccc1Cl`, the T/C reads like this: under setting [11], 98 % of control; under setting [12], 104 % of control; under setting [13], 95 % of control.

In the case of `CC[C@H]1CN2CCc3cc(OC)c(OC)cc3[C@@H]2C[C@@H]1C[C@H]1NCCc2c1[nH]c1ccc(OC)cc21`, the T/C runs as follows: (endpoint: mean survival time, dose: 0.5 mg/kg/injection, schedule: Q01DX009 (ip), vehicle: saline) 103 % of control; (endpoint: mean survival time, dose: 1.0 mg/kg/injection, schedule: Q01DX009 (ip), vehicle: saline) 105 % of control; (endpoint: mean survival time, dose: 2.0 mg/kg/injection, schedule: Q01DX005 (ip), vehicle: saline) 113 % of control; (endpoint: mean survival time, dose: 2.0 mg/kg/injection, schedule: Q01DX009 (ip), vehicle: saline) 107 % of control; (endpoint: mean survival time, dose: 2.0 mg/kg/injection, schedule: Q04DX003 (ip), vehicle: saline) 115 % of control; (endpoint: mean survival time, dose: 4.0 mg/kg/injection, schedule: Q01DX005 (ip), vehicle: saline) 117 % of control. Further, the T/C (endpoint: mean survival time, dose: 4.0 mg/kg/injection, schedule: Q01DX009 (ip), vehicle: saline) is 114 % of control; the T/C (endpoint: mean survival time, dose: 4.0 mg/kg/injection, schedule: Q04DX003 (ip), vehicle: saline) is 123 % of control; the T/C (endpoint: mean survival time, dose: 8.0 mg/kg/injection, schedule: Q04DX003 (ip), vehicle: saline) is 109 % of control; the T/C (endpoint: mean survival time, dose: 16.0 mg/kg/injection, schedule: Q01DX009 (ip), vehicle: saline) is 117 % of control; the T/C (endpoint: mean survival time, dose: 16.0 mg/kg/injection, schedule: Q04DX003 (ip), vehicle: saline) was 124 % of control; the T/C (endpoint: mean survival time, dose: 32.0 mg/kg/injection, schedule: Q04DX003 (ip), vehicle: saline) was 152 % of control. In addition, the T/C (endpoint: median survival time, dose: 4.0 mg/kg/injection, schedule: Q04DX003 (ip), vehicle: saline + alcohol) is 101 % of control; the T/C (endpoint: median survival time, dose: 8.0 mg/kg/injection, schedule: Q04DX003 (ip), vehicle: saline + alcohol) was 104 % of control; the T/C (endpoint: median survival time, dose: 16.0 mg/kg/injection, schedule: Q04DX003 (ip), vehicle: saline + alcohol) is 117 % of control; the T/C (endpoint: median survival time, dose: 64.0 mg/kg/injection, schedule: Q04DX003 (ip), vehicle: saline + alcohol) is 86 % of control.

For `CN(C)/N=C(\CBr)c1ccc(Br)cc1`, the T/C (endpoint: mean survival time, dose: 50.0 mg/kg/injection, schedule: Q01DX009 (ip), vehicle: saline with Tween-80) is 96 % of control; the T/C (endpoint: mean survival time, dose: 100.0 mg/kg/injection, schedule: Q01DX009 (ip), vehicle: saline with Tween-80) was 107 % of control; the T/C (endpoint: mean survival time, dose: 200.0 mg/kg/injection, schedule: Q01DX009 (ip), vehicle: saline with Tween-80) is 89 % of control.

As to `Cc1ccc(S(=O)NOCc2ccccc2)cc1` (stereo unspecified), the T/C is 95 % of control under setting [4], 105 % of control under setting [5] and 100 % of control under setting [6].

With `CC(=O)c1sc2sc(C(C)=O)c(NC(=S)Nc3ccccc3Cl)c2c1NC(=S)Nc1ccccc1Cl`, the T/C runs as follows: under setting [11], 97 % of control; under setting [12], 96 % of control; under setting [13], 94 % of control.

`CC(C)C1NC(=O)C2CCCN2C1=O` (stereo unspecified): the T/C (endpoint: mean survival time, dose: 100.0 mg/kg/injection, schedule: Q04DX003 (ip), vehicle: saline sonified) is 98 % of control; the T/C (endpoint: mean survival time, dose: 200.0 mg/kg/injection, schedule: Q04DX003 (ip), vehicle: saline sonified) was 96 % of control; the T/C (endpoint: mean survival time, dose: 400.0 mg/kg/injection, schedule: Q04DX003 (ip), vehicle: saline sonified) was 97 % of control.

As for `CC(C)N=Cc1cc(Br)cc(Br)c1O.CC(C)N=Cc1cc(Br)cc(Br)c1O.[Co]`, the T/C was 88 % of control under setting [7]; 91 % of control under setting [8]; 105 % of control (endpoint: mean survival time, dose: 400.0 mg/kg/injection, schedule: Q04DX003 (ip), vehicle: saline).

With `O=[N+]([O-])c1ccccc1N=Nc1c(O)[nH]c2ccc(Br)cc12`, the T/C was 98 % of control under setting [14], 101 % of control under setting [15] and 113 % of control under setting [16].

Turning to `S=c1[nH]n2c(=S)[nH]nc2s1`, the T/C runs as follows: under setting [4], 101 % of control; under setting [5], 103 % of control; under setting [6], 93 % of control.

Take `COc1ccc(C(CC(C)=O)c2c(O)c3ccccc3oc2=O)cc1OC` (stereo unspecified): the T/C by setting is: (endpoint: mean survival time, dose: 1.56 mg/kg/injection, schedule: Q01DX009 (ip), vehicle: water) 102 % of control; (endpoint: mean survival time, dose: 3.12 mg/kg/injection, schedule: Q01DX009 (ip), vehicle: water) 97 % of control; (endpoint: mean survival time, dose: 6.25 mg/kg/injection, schedule: Q01DX009 (ip), vehicle: water) 98 % of control; (endpoint: mean survival time, dose: 12.5 mg/kg/injection, schedule: Q01DX009 (ip), vehicle: water) 93 % of control; (endpoint: mean survival time, dose: 25.0 mg/kg/injection, schedule: Q01DX009 (ip), vehicle: water) 93 % of control and 86 % of control.

Turning to `CCON=C1C(C)(C)C(C)(C)C(C)(C)C1(C)C`, the T/C was 98 % of control under setting [11], 95 % of control under setting [12] and 96 % of control under setting [13].
